The values below come from patent US8568994B2, “Method for prenatal diagnosis” (DKFZ Deutsches Krebsforschungszentrum, Stiftung des …, priority 2007, dated 2013).

For the assay, the system named is Differentiated HPC cells. In words: Regulated exosomal secretion in human podocytes (Western blot of secreted vesicles for CD24, HSP70, Annexin-1). Conditions: MCD 10 μg/ml or 10 mM for 2 hr. The format is cell-based. As for the experimental part: Cultured HPC (differentiated) were treated with ionomycin (1 μM), MCD (10 mM) or cis-platin (15 μM) for 2 hr. Secreted membrane vesicles were harvested and cells were lysed in lysis buffer. Lysates and isolated vesicles were analyzed by SDS-PAGE followed by Western blot analysis with the indicated antibodies to CD24 and the exosomal marker proteins HSP70 and Annexin-1. Note the low level of constitutive vesicle secretion that is augmented by MCD.
Differentiated HPC cells were treated with ionomycin ([…]), MCD (10 μg/ml) or cisplatin (1 μg/ml) and analyzed the amount of exosomes released.
Human conditionally immortalized podocytes (HPC) were isolated and cultivated as previously described (31). Cells were grown in flasks either at the permissive temperature of 32° C. (in 5% CO2) to promote cell propagation as a cobblestone phenotype (undifferentiated) or at the nonpermissive temperature of 37° C. (in 5% CO2) to inactivate the SV40 T antigen and to allow the cells to differentiate. Prior to stimulation, cells were incubated for 16 h in RPMI 1640 medium, supplemented with 0.1 mg/ml of fatty acid-free bovine serum albumin. HK-2 human proximal tubular epithelial cells were obtained from American Type Culture Collection (ATCC, USA). Human mesangial cells (HMC) were kindly provided by Prof. Dr. Radeke (Depart. of Pharmacology, University of Frankfurt). […]
A general note: Immunoblotting shows a protein as a band on a membrane.

With methyl-beta-cyclodextrin [MCD], the “release of CD24 containing exosomes” value is listed as “significantly augmented the release of CD24 containing exosomes”.
